≈ marks a conversion by molar mass, not a printed value. Where two headings read alike, the source gives them in different places.
Assays:
Assay in all cases: in vitro antibacterial activity, standard agar dilution method
Type in all cases: cell-based
[1] = test system: Bacillus subtilis PCI 219; settings: PCI219, aerobic, read-out: minimum inhibitory concentration (MIC)
[2] = test system: Staphylococcus aureus FDA 209P JC-1; settings: FDA209P, read-out: minimum inhibitory concentration (MIC)
[3] = test system: Staphylococcus aureus NR 2855
[4] = test system: Staphylococcus aureus Smith; settings: Staphylococcus aureus Smith; aerobic; agar dilution; read-out: minimum inhibitory concentration (MIC)
[5] = test system: Staphylococcus epidermidis IFO 12993; settings: IFO12993, aerobic, read-out: minimum inhibitory concentration (MIC)
[6] = test system: Staphylococcus epidermidis NR 2942; settings: NR2942, aerobic, read-out: minimum inhibitory concentration (MIC)
[7] = test system: Enterococcus faecalis NR 2943; settings: NR2943, aerobic, read-out: minimum inhibitory concentration (MIC)
[8] = test system: Alcaligenes faecalis IFO 13111; settings: IFO13111, aerobic, read-out: minimum inhibitory concentration (MIC)
[9] = test system: Citrobacter freundii IFO 12681; settings: IFO12681, aerobic, read-out: minimum inhibitory concentration (MIC)
[10] = test system: Enterobacter aerogenes NR 2945; settings: Klebsiella aerogenes, NR2945, aerobic, read-out: minimum inhibitory concentration (MIC)
[11] = test system: Enterobacter cloacae NR 2946; settings: NR2946, aerobic, read-out: minimum inhibitory concentration (MIC)
[12] = test system: Escherichia coli NIHJ JC-2; settings: NIHJJC2, aerobic, read-out: minimum inhibitory concentration (MIC)
Escherichia coli NR 2630 = test system: Escherichia coli NR 2630
[13] = test system: Klebsiella pneumoniae FDA PCI 602; settings: FDAPCI602, aerobic, read-out: minimum inhibitory concentration (MIC)
[14] = test system: Bordetella bronchiseptica ATCC 4617; settings: ATCC4617, aerobic, read-out: minimum inhibitory concentration (MIC)
[15] = test system: Proteus rettgeri ATCC 14505; settings: Providencia rettgeri, ATCC14505, aerobic, read-out: minimum inhibitory concentration (MIC)
[16] = test system: Proteus vulgaris OX19 ATCC 6898; settings: ATCC6898, aerobic, read-out: minimum inhibitory concentration (MIC)
[17] = test system: Pseudomonas aeruginosa A3; settings: aerobic, read-out: minimum inhibitory concentration (MIC)
[18] = test system: Pseudomonas aeruginosa NR 2950; settings: NR2950, aerobic, read-out: minimum inhibitory concentration (MIC)
[19] = test system: Pseudomonas stutzeri IFO 12695; settings: Stutzerimonas stutzeri, IFO12695, aerobic, read-out: minimum inhibitory concentration (MIC)
[20] = test system: Serratia marcescens IFO 12648; settings: IFO12648, aerobic, read-out: minimum inhibitory concentration (MIC)
[21] = test system: Salmonella typhimurium IFO 12529; settings: Salmonella enterica, aerobic, read-out: minimum inhibitory concentration (MIC)
[22] = NR2855, Staphylococcus aureus NR 2855, aerobic, agar dilution, read-out: minimum inhibitory concentration (MIC)
[23] = NR2630, Escherichia coli NR 2630, aerobic, agar dilution, read-out: minimum inhibitory concentration (MIC)
[24] = Staphylococcus aureus FDA 209P JC-1, aerobic, agar dilution

Row | Structure (SMILES) | MIC [1] [µg/mL] | MIC [3, 22] [µg/mL] | MIC [4] [µg/mL] | MIC [5] [µg/mL] | MIC [6] [µg/mL] | MIC [7] [µg/mL] | MIC [8] [µg/mL] | MIC [9] [µg/mL] | MIC [10] [µg/mL] | MIC [11] [µg/mL] | MIC [12] [µg/mL] | MIC [13] [µg/mL] | MIC [14] [µg/mL] | MIC [15] [µg/mL] | MIC [16] [µg/mL] | MIC [17] [µg/mL] | MIC [18] [µg/mL] | MIC [19] [µg/mL] | MIC [20] [µg/mL] | MIC [21] [µg/mL] | further results
1 | CN1COc2c(N3CCC(Cl)C3)c(F)cc3c(=O)c(C(=O)O)cn1c23 (centres unmarked) [Example 59, 10-(3-chloro-1-pyrrolidinyl)-9-fluoro-3-methyl-7-oxo-2,3-dihydro-7H-pyrido[3,2,1-ij]-1,3,4-benzoxadiazine-6-carboxylic acid] | 0.0065 (≈ 0.0177 µM) | 0.1 (≈ 0.272 µM) | 0.05 (≈ 0.136 µM) | 0.39 (≈ 1.06 µM) | 0.2 (≈ 0.544 µM) | 3.13 (≈ 8.51 µM) | 6.25 (≈ 17 µM) | 1.56 (≈ 4.24 µM) | 0.78 (≈ 2.12 µM) | 0.78 (≈ 2.12 µM) | 1.56 (≈ 4.24 µM) | 3.13 (≈ 8.51 µM) | 3.13 (≈ 8.51 µM) | 3.13 (≈ 8.51 µM) | 0.2 (≈ 0.544 µM) | 3.13 (≈ 8.51 µM) | 25 (≈ 68 µM) | 1.56 (≈ 4.24 µM) | 3.13 (≈ 8.51 µM) | 1.56 (≈ 4.24 µM) | MIC ([2]; Staphylococcus aureus): 0.39 µg/mL (≈ 1.06 µM); MIC (Escherichia coli NR 2630; [23]): 0.39 µg/mL (≈ 1.06 µM)
2 | CC1Oc2c(N3CCNCC3)c(F)cc3c(=O)c(C(=O)O)cn(c23)N1C (centres unmarked) [Example 25] | 0.78 (≈ 2.15 µM) | 12.5 (≈ 34.5 µM) | 1.56 (≈ 4.31 µM) | 6.25 (≈ 17.2 µM) | 6.25 (≈ 17.2 µM) | 100 (≈ 276 µM) | 50 (≈ 138 µM) | 0.78 (≈ 2.15 µM) | 0.39 (≈ 1.08 µM) | 0.78 (≈ 2.15 µM) | 0.78 (≈ 2.15 µM) | 3.13 (≈ 8.64 µM) | 100 (≈ 276 µM) | 25 (≈ 69 µM) | 0.1 (≈ 0.276 µM) | 3.13 (≈ 8.64 µM) | 50 (≈ 138 µM) | 0.39 (≈ 1.08 µM) | 3.13 (≈ 8.64 µM) | 0.2 (≈ 0.552 µM) | MIC [2, 24]: 6.25 µg/mL (≈ 17.2 µM); MIC (Escherichia coli NR 2630; Escherichia coli, NR2630, read-out: minimum inhibitory concentration (MIC)): 0.39 µg/mL (≈ 1.08 µM)
3 | CN1COc2c(N3CCNC(c4ccccc4)C3)c(F)cc3c(=O)c(C(=O)O)cn1c23 (centres unmarked) [Example 8] | 0.025 (≈ 0.0589 µM) | 0.39 (≈ 0.919 µM) | 0.2 (≈ 0.471 µM) | 0.39 (≈ 0.919 µM) | 0.39 (≈ 0.919 µM) | 6.25 (≈ 14.7 µM) | 0.78 (≈ 1.84 µM) | 0.025 (≈ 0.0589 µM) | 0.025 (≈ 0.0589 µM) | 0.05 (≈ 0.118 µM) | 0.05 (≈ 0.118 µM) | 0.2 (≈ 0.471 µM) | 0.39 (≈ 0.919 µM) | 0.39 (≈ 0.919 µM) | 0.025 (≈ 0.0589 µM) | 0.39 (≈ 0.919 µM) | 3.13 (≈ 7.37 µM) | 0.025 (≈ 0.0589 µM) | 0.1 (≈ 0.236 µM) | 0.025 (≈ 0.0589 µM) | MIC [2, 24]: 0.39 µg/mL (≈ 0.919 µM); MIC (Escherichia coli NR 2630; [23]): 0.013 µg/mL (≈ 0.0306 µM)
4 | CC(=O)NCC1CCN(c2c(F)cc3c(=O)c(C(=O)O)cn4c3c2OCN4C)C1 (centres unmarked) [Example 19, 10-[3-(acetylaminomethyl)-1-pyrrolidinyl]-9-fluoro-3-methyl-7-oxo-2,3-dihydro-7H-pyrido[3,2,1-ij]-1,3,4-benzoxadiazine-6-carboxylic acid] | 0.05 (≈ 0.124 µM) | – | 0.2 (≈ 0.495 µM) | 0.39 (≈ 0.964 µM) | 0.39 (≈ 0.964 µM) | 6.25 (≈ 15.5 µM) | 6.25 (≈ 15.5 µM) | 1.56 (≈ 3.86 µM) | 1.56 (≈ 3.86 µM) | 1.56 (≈ 3.86 µM) | 1.56 (≈ 3.86 µM) | 6.25 (≈ 15.5 µM) | 6.25 (≈ 15.5 µM) | 3.13 (≈ 7.74 µM) | 0.39 (≈ 0.964 µM) | 6.25 (≈ 15.5 µM) | 25 (≈ 61.8 µM) | 0.39 (≈ 0.964 µM) | 3.13 (≈ 7.74 µM) | 1.56 (≈ 3.86 µM) | MIC ([2]; Staphylococcus aureus): 0.39 µg/mL (≈ 0.964 µM); MIC ([3]; Staphylococcus aureus, NR2855, read-out: minimum inhibitory concentration (MIC)): 0.39 µg/mL (≈ 0.964 µM); MIC (Escherichia coli NR 2630; [23]): 0.39 µg/mL (≈ 0.964 µM)
5 | Cc1cn(-c2c(F)cc3c(=O)c(C(=O)O)cn4c3c2OCN4C)cn1 [Example 22] | 0.05 (≈ 0.145 µM) | 0.39 (≈ 1.13 µM) | 0.2 (≈ 0.581 µM) | 0.39 (≈ 1.13 µM) | 0.2 (≈ 0.581 µM) | 3.13 (≈ 9.09 µM) | 3.13 (≈ 9.09 µM) | 0.1 (≈ 0.29 µM) | 0.1 (≈ 0.29 µM) | 0.1 (≈ 0.29 µM) | 0.1 (≈ 0.29 µM) | 0.39 (≈ 1.13 µM) | 1.56 (≈ 4.53 µM) | 0.78 (≈ 2.27 µM) | 0.0065 (≈ 0.0189 µM) | 1.56 (≈ 4.53 µM) | 6.25 (≈ 18.2 µM) | 0.1 (≈ 0.29 µM) | 0.78 (≈ 2.27 µM) | 0.1 (≈ 0.29 µM) | MIC [2, 24]: 0.2 µg/mL (≈ 0.581 µM); MIC (Escherichia coli NR 2630; [23]): 0.025 µg/mL (≈ 0.0726 µM)

Source: patent US4864023A, “Pyrido(3,2,1-IJ)-1,3,4-benzoxadiazine derivatives” (priority 1988, dated 1989)
